Laboratory results as given in patent publication US10736933B2, “Peptide-induced NK cell activation” (priority 2015, dated 2020).

Tests used:
Type in all cases: cell-based
[1] = test system: NKL cell line transfected with KIR2DS2; assay: Vav1 phosphorylation (pVav1 Western blot) in NKL cells transfected with KIR2DS2; conditions: L721.174 (HLA-Cw*0102) cells loaded with peptide; KIR2DS2-transfected NKL, 5 minutes
Experimental: (§1) A. L721.174 cells were incubated with indicated peptides. The cells were then incubated with the NK cell line transfected with KIR2DS2. The cells were lysed and the KIR2DS2 was then immunoprecipitated from the mixture using the GL183 antibody coupled to protein-G beads. The immune precipitate was analysed by Western blotting using a phosphotyrosine antibody. The membrane was then stripped and reprobed with an antibody to DAP12 the molecule that transduces a positive signal from KIR2DS2. Shown are the regions on the blots at the level of DAP12 (12-15 kDa). B. L721.174 cells were incubated with indicated peptides. The cells were then incubated with the NK cell line transfected with KIR2DS2 or transfected with KIR2DL2. The cells were lysed in 1% NP-40 and then analysed by Western blotting using antibodies to pVav1 and then following stripping of the membrane to Vav1. Shown are Western blots around the 98 kDa region, and below them the corresponding densitometries for 3 independent experiments.
FIG. 7 1×10^6 L721.221-HLA-C*0304-ICP47 cells were incubated overnight at 26° C. with indicated peptides at a concentration of […]. The cells were then incubated with the NKL cell line transfected with KIR2DS2 or transfected with KIR2DL2 for 5 minutes. The cells were lysed in 1% NP-40 and then analysed by Western blotting using antibodies to pVav1 and then following stripping of the membrane to Vav1. Shown are Western blots around the 98 kDa region, and below them the corresponding densitometries for 2 independent experiments.
FIG. 14—The Dengue virus peptide IVDLMCHATF (SEQ ID NO: 1) activates KIR2DS2 positive NK cells. 174 cells were incubated with the IVDLMCHATF (SEQ ID NO: 1) and then KIR2DS2-positive transfected NKL cells or KIR2DL2-positve transfected NKL cells. Activation of NK cells was assessed by western blotting for phosphorylated Vav1, and compared to total Vav1.
With reference to FIG. 6A, 1×10^6 L721.174 cells were incubated overnight at 26° C. with indicated peptides at a concentration of […]. The cells were then incubated with the NK cell line transfected with KIR2DS2 for 5 minutes. The cells were lysed in 1% digitonin buffer and the KIR2DS2 was then immunoprecipitated from the mixture using the GL183 antibody coupled to protein-G beads. The immune precipitate was analysed by Western blotting using a phosphotyrosine antibody. […] The cells were lysed in 1% NP-40 and then analysed by Western blotting using antibodies to pVav1 and then following stripping of the membrane to Vav1. […]
(§2) With reference to FIG. 7, 1×10^6 HLA-C*0304:ICP47:721.221 cells were incubated overnight at 26° C. with indicated peptides at a concentration of 2004. […] The cells were lysed in 1% NP-40 and then analysed by Western blotting using antibodies to pVav1 and then following stripping of the membrane to Vav1. […]

[2] = test system: KIR2DS2-positive NK cells; assay: CD107a degranulation of NK cells from KIR2DS2-positive donors cultured with peptide-loaded L721.174 cells
Experimental: A. cells were incubated in the presence or absence of peptides, and then cultured with NK cells from either a KIR2DS2-positive or KIR2DS2-negative donor. The level of CD107a (LAMP) expression was measured on NK cells positive for the CH-L antibody. This antibody binds to KIR2DS2, KIR2DL2 and KIR2DL3. B. Summary data from 5 KIR2DS2-positive and 6 KIR2DS2 • negative donors tested as per panel A of FIG. 2. To compare the different donors the data are normalized to 100% for the no peptide condition.
With reference to FIG. 2A, 3×10^5 L721.174 cells were incubated at 26° C. overnight in the presence or absence of peptides, and then cultured for four hours with NK cells from either a KIR2DS2-positive or KIR2DS2-negative donor. The level of CD107a (LAMP) expression was measured on NK cells positive for the CH-L antibody. This antibody binds to KIR2DS2, KIR2DL2 and KIR2DL3. […] With reference to FIG. 2B, summary data from 5 KIR2DS2-positive and 6 KIR2DS2 • negative donors were tested as per panel A of FIG. 2. To compare the different donors the data are normalized to 100% for the no peptide condition.

[3] = test system: KIR2DS2-positive NK cell clones; assay: Cytotoxicity of NK cell clones against peptide-loaded L721.174 cells (Live/Dead stain); conditions: KIR2DS2-positive clones 4, 6, 9 only (not KIR2DS2-negative clone 27); compared to no peptide or VAPWNSFAL
Experimental: (§3) L721.174 cells were incubated in the presence or absence of the peptides VAPWNSFAL (SEQ ID NO: 12) and the LNPSVAATL (SEQ ID NO: 5). The cells were then labeled with the cell tracker orange dye, and then cultured with KIR2DS2-positive NK cell clones (clones 4,6,9) or a KIR2DS2-negative NK cell clone (clone 27). Cytotoxicity was then determined using Live/Dead® fixable far-red stain.
as §3, with “With reference to FIG. 3, 3×10^5 L721.174” for “L721.174”, “incubated at 26° C. overnight” for “incubated”, “cultured for four hours” for “cultured”

[4] = test system: NK cell line transfected with KIR2DS2; assay: DAP12 phosphorylation after KIR2DS2 immunoprecipitation (Western blot); conditions: L721.174 cells with peptide at a concentration of 2004, NK cell line with KIR2DS2 for 5 minutes
Experimental: as §1
as §2, with “6A,” for “7,”, “L721.174” for “HLA-C*0304:ICP47:721.221”, “2004. […] The immune precipitate was analysed by Western blotting using a phosphotyrosine antibody.” for “2004.”

Sequence	activation of NK cells (phosphorylated Vav1 compared to total Vav1) [1]	level of CD107a (LAMP) degranulation ([2]; KIR2DS2-positive donor, CH-L antibody positive NK cells, four hours, compared to no peptide)	level of CD107a (LAMP) degranulation ([2]; KIR2DS2-positive donors, in combination with VAPWNSFAL, compared to the VAPWNSFAL peptide alone)	killing of L721.174 cell line [3]	phosphorylation of DAP12 [4]
IVDLMCHATF [Dengue virus peptide]	activated KIR2DS2				
LNPSVAATL [peptide recognized by KIR2DS2-positive NK cells]	activates NK cells expressing KIR2DS2	higher levels of degranulation	higher levels of degranulation	killed the L721.174 cell line to greater extent	induces phosphorylation of DAP12
